Experimental data as given in patent US20090209473A1, “Componds and methods for pormoting angiogenesis” (priority 2003, published 2009).
Where “and” joins values, the source holds several entries; their conditions need not be identical. Equal entries are not always repeated.

Columns and labels:
[1] = system: Human umbilical vein endothelial cells (HUVEC); assay: HUVEC cluster sprouting in collagen gel (Example 1 in vitro model); type: cell-based; conditions: for sprout length versus cells receiving VEGF only: co-administered with VEGF
Procedure: Human umbilical vein endothelial cells (HUVEC) were used to evaluate various gamma-secretase inhibitors for potential angiogenesis effect. A 72 cm2 flask of confluent cells (1.5-2 E6 cells) was trypsinized with 3.5 ml trypsin/EDTA. After a maximum of 3 minutes, the cells were rinsed with 1.5 ml serum then centrifuged at 200 g for 3 minutes. After centrifugation, the supernatant was discarded and the cells resuspended in medium (endothelial cell growth medium (Promocell) with additional 10% serum). Cell concentration was diluted to 2.0×10^4 cells/ml in medium supplemented with 20% methocel stock solution. The cells were clustered in hanging drops of 20 μl (400 cells) overnight.
To imbed the cells in gel, the drops were first rinsed with PBS. The clusters were centrifuged at 200 g for 3 minutes and the supernatant removed. Centrifuge tubes were then briefly drawn over a rough surface to loosen the pellet. The clusters were resuspended in ice cold methocel stock solution supplemented with 20% protein. An equal amount of collagen I-gel at 3 mg/ml (Becton-Dickinson) was carefully mixed with the cells. Immediately thereafter, 1000 μl of the gel/cell cluster mixture was added to each well of a preheated (37° C.) 24-well plate. The plate was incubated for 30 minutes at 37° C., 5% CO2 and 100% humidity. One hundred μl of medium, along with the desired test substance and optionally 2.5 μl of 10 μg/ml VEGF were added to each well to a final concentration in the top medium of 250 ng/ml and 25 ng/ml in the well. Negative control cells received medium only and positive control cells received medium and VEGF only. The wells without gel were given 1 ml PBS.
To quantify the results, ten clusters from each […] were photographed. The length of the five longest sprouts on each cluster was measured, and the sum of the sprout length from each cluster calculated. Average values from ten clusters were obtained.
The above-mentioned methocel stock solution was prepared by autoclaving 6 grams of pure methyl cellulose powder (Sigma) in a 500 ml flask containing a magnetic stirrer. After autoclaving the methyl cellulose was dissolved in 250 ml of basal medium preheated to 60° C. for 20 minutes. An additional 250 ml of basal medium at room temperature was added to a final volume of 500 ml and the solution stirred overnight. Finally, the stock solution was aliquotted and cleared through centrifugation at 5000g for 2 hours at room temperature. The 90-95% of the material which became the clear, highly viscous supernatant was used.

HUVEC spheroids = assay: HUVEC spheroid sprouting, cumulative sprout length (Example 5 modified in vitro model); type: cell-based, Human; conditions: for sprout length versus control across concentrations: 100, 20, 4, 0.8, 0.16, 0.032 μM
Procedure: Similar to the approach described in Example 1, two further compounds were evaluated for their ability to initiate or increase angiogenesis. HUVEC spheroids were prepared by pipetting 400 HUVE cells (PromoCell, Heidelberg, Germany, cultured according to supplier's instructions) into each well of non-adhesive 96-well plates and allowed to aggregate overnight. After harvesting, 48 spheroids were seeded in 900 μl of methocel-collagen solution and pipetted into individual wells in a 24-well plate, allowing for collagen gel polymerization. After 30 minutes, freshly-prepared test compounds were added (prepared by dissolving lyophilized compound at a concentration of 10 mM in DMSO, specific concentrations administered described below) by pipetting 100 μl of a 10-fold concentrated working dilution on top of the gel. At the end of the incubation period the dishes were fixed for 24 hours at 37° C. with paraformaldehyde.
Sprouting intensity of endothelial cells was quantitated by an image analysis system determining the cumulative sprout length per spheroid using an Olympus IX50 inverted microscope and Olympus image analysis software. The mean of the cumulative sprout length of 10 randomly selected spheroids was analyzed as an individual data point.

new born mice = assay: Physiological retinal angiogenesis in new born (non-OIR) mice; type: in vivo; conditions: administered postnatal days 3 and 4, retinas analysed day 5
Procedure: To investigate if the increased retinal vascularization after DAPT treatment was restricted to the OIR, the effect of DAPT on physiological angiogenesis in new born mice was investigated. DAPT was administered to new born mice on postnatal days 3 and 4 and retinas were analyzed at day 5 as described above. […] This can be observed by comparing the degree of vascularization in the retina of control animals, FIGS. 20 and 21, with that of treated animals as shown in FIGS. 22 and 23. Except for the increased vascular density, the vascular architecture was normal. The growth of the vascular network towards the periphery and the arterio-venous specification were intact for DAPT-treated mice as with controls.

[2] = system: Oxygen-induced retinopathy mice; assay: Oxygen-induced retinopathy mouse model, retinal whole mount analysis; type: in vivo
From the text: Oxygen-induced retinopathy mice were used to determine the extent and effect of gamma-secretase inhibitors on the angiogenic process. Mice with oxygen induced retinopathy (OIR mice) are a commonly-used model and are described in the literature (see, Smith et al, supra). They are at times referred to as retinopathy of prematurity models or ROP mice. The model takes advantage of the fact that full term mice pups are born with an immature retinal vascularization which matures during the first three weeks of postnatal growth. Briefly, neonatal mice (NMRI/C57b1) from the same litter were placed, with their nursing mother, in a hyperoxic environment (75% oxygen) at age day seven. After exposure to the hyperoxic environment for 5 days, the 12-day old pups were removed to normal air. In the treated mice, DAPT was administered once daily during age days 12-16. Control pups were treated the same way but injected with the vehicle. At post natal day 17 the mice were euthanized and the retinas were prepared for whole mount immunohistochemistry. Except for the mode of injection, the stock solution of DAPT was prepared and administered essentially as described in Lanz et al., (2003, J. Pharmacol. Exp. Ther. 305:864-71). In short, 5 mg DAPT was dissolved in 25 μl 99.5% EtOH and then dissolved in 475 μl Corn oil (Sigma, Catalog No. C8267). If precipitate formed, the solution was heated to 70° C. for 2-3 minutes. The pups were injected subcutaneously once a day according to: V(μl)=weight (g)*10, that is, 100 mg DAPT/kg body weight. Control pups were injected subcutaneously once a day with the same amount of vehicle (i.e. 5% EtOH in corn oil). Eyes were fixed in 4% PFA in PBS at 4° C. overnight and washed in PBS. […] This can be quantified in the superficial capillary plexus by counting the number of capillary enclosed areas in the peripheral part of the retina.

[3] = 100 μM test compound co-administered with 25 ng/ml VEGF-A
[4] = 100 μM test compound, no VEGF-A

For `CC1(C)[C@@H]2CC[C@@](C)(C2)[C@@H]1NS(=O)(=O)c1ccc(F)cc1` [1-(S)-endo-N-(1,3,3)-Trimethylbicyclo[2.2.1]hept-2-yl)-4-fluorophenyl Sulfonamide], the average sprout length ([1]; 0.16 μM test compound, no VEGF) was 280 μm, the “increase in length versus control cells” value ([1]; 0.16 μM, no VEGF) was 100% and the average sprout length ([1]; 20 μM test compound co-administered with VEGF) was 480 μm.
For `C[C@H](NC(=O)C(O)c1cc(F)cc(F)c1)C(=O)N[C@H]1N=C(c2ccccc2)c2ccccc2N(C)C1=O` (stereo partly drawn) [Compound X, S-3-[N′-(3,5-difluorophenyl-alpha-hydroxyacetyl)-L-alanilyl]amino-2,3-dihydro-1-methyl-5-phenyl-1H-1,4-benzodiazepin-2-one], the “sprouting versus VEGF-A only” value (HUVEC spheroids; 4 μM test compound co-administered with VEGF-A) was “increase the sprouting significantly”, the “cumulative length of all sprouts (CSL)” value (HUVEC spheroids; [3]) was 4289 μm and the “cumulative length of all sprouts (CSL)” value (HUVEC spheroids; [4]) was 1630 μm. For the same molecule, the “sprout length versus control across concentrations” value (HUVEC spheroids; no VEGF-A) was “Only the two lowest concentrations tested failed to produce longer sprouts that control”.
`C[C@H](NC(=O)Cc1cc(F)cc(F)c1)C(=O)N[C@H](C(=O)OC(C)(C)C)c1ccccc1` [DAPT] was tested, and the average sprout length ([1]; 0.08 μM test compound, no VEGF, +/- SEM) was 330+/−28 μm, the average sprout length ([1]; 0.4 μm DAPT co-administered with VEGF) was 550+/−32 μm and the “sprout length at increasing levels” value ([1]; DAPT 0.4, 2, 10 and 50, no VEGF, versus 0.08 μM) was “further increases in sprout length”. The “sprout length versus cells receiving VEGF only” value [1] was “increases in sprout length over those with VEGF alone”, the “peripheral retinal vascular density” value (new born mice) was “increased peripheral vascular density” and the “vascular architecture of retina” value (new born mice) was “normal”. For the same molecule, the “avascular zones in the central retina” value ([2]; 100 mg/kg s.c. once daily days 12-16, analysed day 17) was “almost completely lack the vascular-free zones”, the “number of capillary enclosed areas in the peripheral retina” value ([2]; 100 mg/kg s.c. once daily days 12-16, day 17, versus vehicle control) was “near doubling” and the “vascular (capillary) tufts in retina” value ([2]; 100 mg/kg s.c. once daily days 12-16, versus control) was “significant reduction in capillary tufts”.
For `CC(C)[C@H](O)C(=O)N[C@@H](C)C(=O)N[C@@H]1C(=O)N(C)CCc2ccccc21` [LY-450, 139, (N)—[(S)-2-hydroxy-3-methyl-butyryl]-1-(L-alaninyl)-(S)-1-amino-3-methyl-4,5,6,7-tetrahydro-2H-3-benzazepin-2-one], the “cumulative length of all sprouts (CSL)” value (HUVEC spheroids; [3]) was 3521 μm, the “cumulative length of all sprouts (CSL)” value (HUVEC spheroids; [4]) was 1730 μm and the “sprout length versus control across concentrations” value (HUVEC spheroids; no VEGF-A) was “lower concentrations were not found to be effective”. The “sprout length versus VEGF-A only across concentrations” value (HUVEC spheroids; 100 to 0.032 μM co-administered with 25 ng/ml VEGF-A) was “Only the lowest concentration tested failed to produce longer sprouts that VEGF-A”.
In the case of `COC(=O)[C@@H](NC(=O)[C@H](CC(C)C)NC(=O)N(Cc1ccccc1)C[C@@H](O)[C@H](Cc1ccccc1)NC(=O)OC(C)(C)C)C(C)C` [WPE-III-31C], the average sprout length ([1]; 0.16 μM test compound co-administered with VEGF) is reported as 410 μm, the average sprout length ([1]; 0.16 μM test compound, no VEGF) is reported as 230 μm and the “sprout length at increasing concentrations” value ([1]; WPE-III-31C 0.16, 0.8 and 4 μM, no VEGF) is reported as “only increased with increasing concentrations”. For the same molecule, the “sprout length versus cells receiving VEGF only” value [1] was “significantly longer sprout lengths than the control cells”.
VEGF was tested, and the average sprout length ([1]; VEGF only (positive control), 25 ng/ml in the well) was 460 μm and 370 μm and 320 μm and the “cumulative length of all sprouts (CSL)” value (HUVEC spheroids; VEGF-A only, 25 ng/ml) was 1794 μm and 1860+/−100 μm.
